Each structure is given as a SMILES string.

The species named for assay [1] is Cavia porcellus. In words: Inhibitory effect of compound was measured for arterial contraction in guinea pig. Type of assay: functional, organism-based.
The species entered for assay [2] is Cavia porcellus. Nature of the assay: Inhibitory effect of compound was measured for platelet aggregation in guinea pig blood. The class given is functional, organism-based.

A word on the IC50: it is the concentration needed to halve the response being measured. For `CO[C@@H]1[C@H](N(C)C)CC2O[C@]1(C)n1c3ccccc3c3c4c(c5c6ccccc6n2c5c31)C(=O)OC4`, the values for the IC50 in the assay filed under Cavia porcellus [1] and in the assay listed under Cavia porcellus [2] were greater than 10 µM and 5.4 µM, respectively.
`CN[C@@H]1CC2O[C@@](C)([C@@H]1OC)n1c3ccccc3c3c(CO)c(CO)c4c5ccccc5n2c4c31`: the IC50 in the assay filed under Cavia porcellus [1] amounted to 30 µM; in the assay filed under Cavia porcellus [2], 6.8 µM.
On to `CN[C@@H]1CC2O[C@@](C)([C@@H]1OC)n1c3ccccc3c3c4c(c5c6ccccc6n2c5c31)C(=O)OC4`, for which the IC50 was greater than 30 µM in the assay filed under Cavia porcellus [1] and 6.8 µM in the assay listed under Cavia porcellus [2].
With `CN[C@@H]1CC2O[C@@](C)([C@@H]1OC)n1c3ccc(O)cc3c3c4c(c5c6cc(O)ccc6n2c5c31)C(=O)OC4`, the half-inhibitory concentration (IC50) in the assay listed under Cavia porcellus [1] stood at 3 µM; in the assay filed under Cavia porcellus [2], 0.4 µM.
